Reference: US20240317683A1, “METHODS OF TREATING MOOD DISORDERS” (priority 2020, published 2024)

Key:
C57BL/6 mice = test: Head twitch response (HTR) in mice; type: in vivo
Description: Animals. Adult male C57BL/6 mice, aged 8 weeks (body weight 20-25 g) were used in these experiments. Animals were housed under controlled temperatures and 12-hour light/dark cycles (lights on between 07:00-19:00 h), with ad libitum food and water. The protocol was approved by the Eurofins Advinus Institutional Animal Care and Use Committee. This study was carried out in strict accordance with the recommendations in the Guide for the Care and Use of Laboratory Animals of the National Institutes of Health. All efforts were made to minimize suffering.
Drugs and Drug administration. Compounds 3 and 4 were prepared as described above. All other compounds were commercially obtained. Test compounds were used as the hydrogen fumarate (1 and 2) or hydrochloride (DOI, 3, and 4) salts. Drugs were dissolved in a vehicle consisting of normal saline and administered subcutaneously (SC) in a volume of 10 ml/kg. Test compounds were administered at 5 doses per compound (0.1 to 100 mg/kg, as indicated, calculated based on the free base) using N=6 animals/group. […] For blockade experiments, MDL100907 (0.1 mg/kg, SC) was administered 10 mins prior to the test compound.
Procedure. Mice were administered one dose of a test drug (or vehicle) s.c. and immediately placed into a small open field for behavioral observation. Animals were observed continuously for 20 mins and the number of HTRs were counted by an observer blind to the treatment condition.
Statistical analysis. The data points shown in Table 11 are the mean ±standard error of the mean (SEM). Analysis was performed using GraphPad Prism 9.

5-HT2B = 5-HT2B (Homo sapiens (Human), UniProt P41595); test: FLIPR Ca2+ flux agonist assay, 5-HT2B; type: cell-based; conditions: Ca2+ flux, HEK293
Chain of 5-HT2B (P41595 whole entry, looked up, species assumed): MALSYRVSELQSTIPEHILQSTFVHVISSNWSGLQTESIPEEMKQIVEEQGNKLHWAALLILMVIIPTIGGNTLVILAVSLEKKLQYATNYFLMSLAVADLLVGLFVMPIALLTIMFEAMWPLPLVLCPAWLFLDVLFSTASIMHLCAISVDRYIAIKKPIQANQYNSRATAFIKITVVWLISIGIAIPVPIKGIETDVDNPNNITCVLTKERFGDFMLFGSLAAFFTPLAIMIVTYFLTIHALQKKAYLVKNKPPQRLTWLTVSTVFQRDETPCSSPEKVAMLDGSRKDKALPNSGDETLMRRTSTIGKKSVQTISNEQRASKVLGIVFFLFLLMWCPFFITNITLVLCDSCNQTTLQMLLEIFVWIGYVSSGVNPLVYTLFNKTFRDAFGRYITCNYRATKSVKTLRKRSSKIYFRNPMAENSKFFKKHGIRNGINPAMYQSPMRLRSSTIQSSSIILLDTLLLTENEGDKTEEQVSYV
Description: (§1) A solution of 250 mM probenecid in 1 mL FLIPR assay buffer was prepared fresh. This was combined with a fluorescent dye (Fluo-4 Direct™) to make a final assay concentration of 2.5 mM. […] The fluorescent dye was then added to the assay plate along with assay buffer to a final volume of 40 μL. The cell plate was incubated for 50 min at 37° C. and 5% CO2 and placed into the FLIPR Tetra along with the compound plate. 10 μL of references and compounds were then transferred from the compound plate into the cell plate and the fluorescent signal was read.

[1] = Stability in mouse brain homogenate; type: in vitro ADME, CD-1 mice
Description: Mouse Brain Homogenate Stability. Frozen mouse brain homogenate (pooled from male CD-1 mice, BioreclamationIVT, MSE00BRAINMZA) was thawed in a water bath at 37° C. immediately prior to use. Positive controls and test compounds (final concentration in incubation medium=1 μM for test compounds and 2 μM for controls, all with 2% DMSO) were incubated in duplicate for each time point (0, 10, 30, 60, and 120 min) in the mouse brain homogenate at a total reaction volume of […] at 37° C. At the end of each incubation period, reactions were immediately quenched with 400 μL of acetonitrile containing internal standard (200 ng/mL tolbutamine and 200 ng/ml labetalol) and mixed thoroughly. Plates were then sealed, shaken for 20 min, and centrifuged at 4,000 rpm and 4° C. for 20 min. Aliquots of 50 μL of each supernatant were diluted into 100 μL of water and the mixtures were then shaken again for 10 min.

[2] = Metabolic stability in human liver microsomes (HLM); type: in vitro ADME; conditions: both sexes, pooled human liver microsomes, pH 7.4, NADPH
Description: HLM Stability. Pooled HLM from adult male and female donors (Corning 452117) were used. Microsomal incubations were carried out in multi-well plates. […] Control incubations were performed by replacing the NADPH-cofactor system with PBS. Test compounds (1 μM, final solvent concentration 1.0%) were incubated with microsomes at 37° C. with constant shaking. Six time points over 60 minutes were analyzed, with 60 μL aliquots of the reaction mixture being drawn at each time point.

[3] = Metabolic stability in mouse liver microsomes (MLM); type: in vitro ADME, CD-1 mice; conditions: CD-1, mouse, pooled mouse liver microsomes, pH 7.4, NADPH
Description: MLM Stability. Pooled MLM from CD-1 mice (BIOIVT M00501) were used. Microsomal incubations were carried out in multi-well plates. […] Control incubations were performed by replacing the NADPH-cofactor system with PBS. Test compounds (1 μM, final solvent concentration 1.0%) were incubated with microsomes at 37° C. with constant shaking. Six time points over 60 minutes were analyzed, with 60 μL aliquots of the reaction mixture being drawn at each time point.

5-HT1A = 5-HT1A (Homo sapiens (Human), UniProt P08908); test: FLIPR Ca2+ flux agonist assay, 5-HT1A; type: cell-based; conditions: Ca2+ flux, CHO cells
Description: as §1

[4] = biological target: serotonin transporter (SERT) (Homo sapiens (Human), UniProt P31645); test: SERT fluorescent substrate uptake inhibition in transfected HEK293 cells; type: cell-based; conditions: HEK293 cells expressing SERT
Description: SERT Uptake Inhibition. The ability of test compounds to block monoamine uptake by SERT was determined using the Neurotransmitter Transporter Uptake Assay Kit manufactured by Molecular Devices (Cat #R8173). Briefly, stably transfected HEK293 cells expressing SERT were grown and plated into 384-well plates at a concentration of 20,000 cells per well. Plates were then incubated for 16-20 h at 37° C. and 5% CO2. The medium was then aspirated and replaced with 25 μL of assay buffer (20 mM HEPES in HBSS, containing 0.1% BSA) containing the test compounds at the appropriate concentrations. Plates were then centrifuged at 300 rpm for 15 s and then incubated at 37° C. for 30 minutes. At this time, 25 μL of the proprietary fluorescent dye solution was added, the plates were incubated at 37°° C. for 60 minutes, and then fluorescence was quantified on a plate reader (excitation wavelength =440 nm, emission wavelength=520 nm). The proprietary dye solution contains a mixture of 1) a fluorescent dye (dye 1) that mimics the endogenous substrate of SERT and is thereby actively transported to the intracellular compartment in the absence of an inhibitor and 2) a masking dye that inhibits the fluorescence of dye 1 in the extracellular compartment. Therefore, the overall fluorescence of the system increases as the fluorescent dye is transported into the cells.

[5] = Metabolic stability in rat liver microsomes (RLM); type: in vitro ADME; conditions: both sexes, pooled rat liver microsomes, pH 7.4, NADPH
Description: RLM Stability. Pooled RLM from adult male and female donors (Xenotech R1000) were used. Microsomal incubations were carried out in multi-well plates. […] Control incubations were performed by replacing the NADPH-cofactor system with PBS. Test compounds (1 μM, final solvent concentration 1.0%) were incubated with microsomes at 37° C. with constant shaking. Six time points over 60 minutes were analyzed, with 60 μL aliquots of the reaction mixture being drawn at each time point.

[6] = Stability in rat brain homogenate; type: in vitro ADME, Sprague Dawley rats
Description: Rat Brain Homogenate Stability. Frozen rat brain homogenate (pooled from male Sprague Dawley rats, BioreclamationIVT, RATOOBRAINMZA) was thawed in a water bath at 37° C. immediately prior to use. Positive controls and test compounds (final concentration in incubation medium=1 μM for test compounds and 2 μM for controls, all with 2% DMSO) were incubated in duplicate for each time point (0, 10, 30, 60, and 120 min) in the rat brain homogenate at a total reaction volume of 100 μL at 37° C. At the end of each incubation period, reactions were immediately quenched with 400 μL of acetonitrile containing internal standard (200 ng/ml tolbutamine and 200 ng/ml labetalol) and mixed thoroughly. Plates were then sealed, shaken for 20 min, and centrifuged at 4,000 rpm and 4° C. for 20 min. Aliquots of 50 μL of each supernatant were diluted into 100 uL of water and the mixtures were then shaken again for 10 min.

[7] = tested on: monoamine oxidase A and B (MAO-A and MAO-B); test: Stability in the presence of monoamine oxidases (human liver mitochondria); type: in vitro ADME
Description: Liver Mitochondria Incubations. Human liver mitochondria (Xenotech H0610.M) were used. Mitochondrial incubations were carried out in multi-well plates. […] Six time points over 60 minutes were analyzed.

5-HT2A = 5-HT2A (Homo sapiens (Human), UniProt P28223); test: FLIPR Ca2+ flux agonist assay, 5-HT2A; type: cell-based; conditions: HEK293
Description: as §1

[8] = human liver mitochondria, pH 7.4, human mitochondrial preparation, 1 μM

## COc1cccc([C@H](O)C2CCN(CCc3ccc(F)cc3)CC2)c1OC [MDL100907, reference compound]
C57BL/6 mice; pretreatment 0.1 mg/kg SC, 10 mins prior to Compound 4
  blockade of the HTR induced by Compound 4: completely blocked

## COc1cc(CC(C)N)c(OC)cc1I (stereo not shown) [DOI, 4-iodo-2,5-dimethoxyamphetamine, reference compound]
C57BL/6 mice; SC, maximal over tested doses
  maximal effect in HTR: 35.6 head twitches/20 min

## COc1ccc2[nH]cc(CCN(C)C)c2c1 [Compound 5-MeO-DMT, 5-methoxy-N,N-dimethyltryptamine, reference compound]
5-HT2B
  5-HT2B % Act @ Max Dose: 20.5%
[1]
  stability in mouse brain homogenate (in words): high stability
[1]; male, CD-1, mouse brain homogenate, 1 μM, 37° C.
  half-life at 1 μM: > 289 min
[1]; mouse brain homogenate, 1 μM, 37° C.
  % Compound Remaining (after 120 min): 91.2%
[2]
  half-life at 1 μM: 13.6 min
[3]
  half-life at 1 μM: 48.8 min
  microsomal CLint at 1 μM: 28.4 µL/min/mg
5-HT1A
  5-HT1A % Act @ Max Dose: 78.8%
[4]
  IC50: 7.02 µM
  SERT % Inhibition @ Max Dose: 68.07%
[5]
  half-life at 1 μM: 14 min
  microsomal CLint at 1 μM: 98.8 µL/min/mg
[6]
  stability in rat brain homogenate (in words): highly unstable
[6]; male, Sprague Dawley, rat brain homogenate, 1 μM, 37° C.
  half-life at 1 μM: 14.4 min
[6]; rat brain homogenate, 1 μM, 37° C.
  % Compound Remaining (after 120 min): 0.3%
[7]; human liver mitochondria preparation
  MAO stability (in words): highly metabolized
[7]; [8]
  half-life at 1 μM: 52.9 min
  microsomal CLint at 1 μM: 43.6 µL/min/mg
[7]; human mitochondrial preparation, 1 μM, 60 min
  Remaining (t = 60 min): 47.1%
5-HT2A
  5-HT2A % Act @ Max Dose: 106%
